For one experiment, the system named is estrogen receptor (ER). Kind of experiment: ER-mediated luciferase reporter induction in T47D KBluc cells. In kind it is cell-based, human. The note with it: relative to 1nM estradiol. The procedure: Experiments testing the effect of flavonoids on estrogen receptor-mediated transcription employed T47D KBluc cells. These cells were maintained in RPMI medium with 10% FBS, penicillin (100 U/mL), and streptomycin (100 μg/mL). For reporter gene experiments, cells were detached as above and replated at 50% confluency in phenol red-free RPMI media with 10% charcoal-stripped FBS and antibiotics (day one). All subsequent steps used phenol red-free medium and trypsin. On day three, the medium was replaced with fresh medium. On day five, cells were washed with PBSE, detached, resuspended, diluted, and replated in the phenol red-free RPMI with charcoal-stripped serum (50,000 cells per well as above).
(§1) For all cell lines, cell harvesting and the luminescence assay for alkaline phosphatase and/or luciferase were performed as previously described in detail. Each condition was performed in quadruplicate. […] Percent inhibition is 100 minus the percent induction.

The target of experiment [1] is T1, glucocorticoid receptor (GR) (Rattus norvegicus, UniProt P06536).
T1 construct: host or cells: T47D (A1-2)
T1 sequence (P06536 1-795): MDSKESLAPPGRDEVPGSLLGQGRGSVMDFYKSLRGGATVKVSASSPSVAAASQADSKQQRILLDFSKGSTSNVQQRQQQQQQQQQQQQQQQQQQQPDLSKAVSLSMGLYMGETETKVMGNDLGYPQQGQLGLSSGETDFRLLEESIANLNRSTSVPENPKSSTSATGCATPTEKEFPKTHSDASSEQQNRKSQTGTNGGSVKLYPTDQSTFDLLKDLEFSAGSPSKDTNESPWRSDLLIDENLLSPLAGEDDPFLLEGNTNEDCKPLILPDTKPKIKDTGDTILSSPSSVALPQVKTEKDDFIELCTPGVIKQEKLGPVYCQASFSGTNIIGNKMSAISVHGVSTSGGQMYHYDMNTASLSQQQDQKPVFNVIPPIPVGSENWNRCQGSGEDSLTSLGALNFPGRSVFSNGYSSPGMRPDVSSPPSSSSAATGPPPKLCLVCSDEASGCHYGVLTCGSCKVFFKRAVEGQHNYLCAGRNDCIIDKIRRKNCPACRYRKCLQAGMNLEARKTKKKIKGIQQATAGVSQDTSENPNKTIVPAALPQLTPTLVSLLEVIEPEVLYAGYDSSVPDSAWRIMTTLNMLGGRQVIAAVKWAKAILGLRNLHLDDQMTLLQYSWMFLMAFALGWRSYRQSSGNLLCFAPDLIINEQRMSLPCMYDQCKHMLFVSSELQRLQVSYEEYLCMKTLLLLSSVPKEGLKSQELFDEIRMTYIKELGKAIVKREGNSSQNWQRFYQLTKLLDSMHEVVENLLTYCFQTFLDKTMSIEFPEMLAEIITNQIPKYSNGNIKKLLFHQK
As to the kind of experiment: GR-mediated induction of transcription by dexamethasone in T47D (A1-2) cells (luciferase reporter and endogenous alkaline phosphatase). In kind it is cell-based, human. To be noted: dexamethasone 1.0 nM; for inhibition at 4 µM / inhibition at 8 µM: T47D.
From the text: The engineered T47D breast cancer cell lines employed for the assessment of flavonoid activity on glucocorticoid receptor (GR) and progesterone receptor (PR) signaling permitted the facile quantitation transcription of both an endogenous gene and a stably integrated reporter gene. […] The T47D K5pLuc cell line responds to progestins via induction of a stably integrated cytokeratin 5-luciferase reporter gene. […] For assessment of the effect of the test compounds on androgen receptor (AR) signaling, we used the HeLa13 cell line engineered to stably express human AR and a PSA-luciferase reporter gene containing a 4× multimerized PSA upstream enhancer ARE1 linked to the E4 TATA box and luciferase gene.
For assessment of the effect of flavones on glucocorticoid receptors, T47D (A1-2) cells were maintained in Minimal Essential Medium, 10% Fetal Bovine Serum (FBS), 0.2 mg/mL G418, penicillin (100 U/mL), and streptomycin (100 μg/mL). For experiments, medium was removed, and cultures rinsed with Phosphate-Buffered Saline (PBS) + 1.0 mM EDTA (PBSE), detached with trypsin, pelleted, and resuspended in medium to a concentration of 500,000 cells/mL. Aliquots of cell suspension, 100 microliters/well, were transferred into a 96-well, white, flat-bottomed plate and allowed to attach for 24 h. The following day, each well was treated with a 50 microliter aliquot of a test compound diluted in medium. Controls received medium containing DMSO diluted in the same way. For hormone treatment, dexamethasone was diluted in medium and added as 50 microliter aliquots so that the final volume in each well was 200 microliters. The final concentration of dexamethasone was 1.0 nM. Controls received medium without hormone. Hormone treatment was for 20 h at which time cells were harvested for assay of alkaline phosphatase and luciferase.
as §1
In general terms: Reporter assays use an easily measured gene product as a stand-in for the process of interest.

Setting [2] is: read-out: % Inhibition of GR Induction, 4 µM, AP (alkaline phosphatase).
Where [3] appears, read: read-out: % Inhibition of GR Induction, 4 µM, LUC (luciferase).
[4] abbreviates: read-out: % Inhibition of GR Induction, 8 µM, AP (alkaline phosphatase).
[5] abbreviates: read-out: % Inhibition of GR Induction, 8 µM, LUC (luciferase).
[6] abbreviates: 4 µM, AP (alkaline phosphatase), read-out: % Inhibition of GR Induction.
Where [7] appears, read: 8 µM, AP (alkaline phosphatase), read-out: % Inhibition of GR Induction.
[8] abbreviates: 8 µM, LUC (luciferase), read-out: % Inhibition of GR Induction.
The mark [9] stands for this setting: 4 µM, LUC (luciferase), read-out: % Inhibition of GR Induction.

Read-outs that look alike come from different tables or passages of the source.

For orientation: inhibition means the drop in the measured response relative to a control, in per cent. Consider `O=c1cc(-c2ccc(O)cc2)oc2cc(O)ccc12` [7,4′-dihydroxyflavone], for which the entries for the “% ER Induction” value in the experiment with estrogen receptor (ER) (1 µM) and in the experiment with estrogen receptor (ER) (4 µM) were 86% and 140%, respectively. Further, the inhibition at 4 µM in experiment [1] (setting [2]) is 47%; in experiment [1] (setting [3]), -92%. In addition, the inhibition at 8 µM in experiment [1] (setting [4]) was 64%; in experiment [1] (setting [5]), -38%.
Consider `COc1ccc([C@@H]2CC(=O)c3c(O)cc(O)cc3O2)cc1O` [5,7,3′-triOH, 4′methoxyflavanone], for which the “% ER Induction” value with estrogen receptor (ER) (1 µM) worked out at 10%; in the experiment with estrogen receptor (ER) (4 µM), 6%. Besides, the inhibition at 4 µM in experiment [1] (setting [6]) is 1%. Also, the inhibition at 8 µM in experiment [1] (setting [7]) turned out to be 51%; in experiment [1] (setting [8]) it was 15%.
For `O=c1cc(-c2ccc(O)c(O)c2)oc2cc(O)cc(O)c12` [5,7,3′,4′-tetrahydroxyflavone], the “% ER Induction” value in the experiment on estrogen receptor (ER) (1 µM) is 3%; in the experiment with estrogen receptor (ER) (4 µM), 80%. The inhibition at 4 µM in experiment [1] (setting [6]) was 33%; in experiment [1] (setting [9]), -8%. Moreover, the results for the inhibition at 8 µM in experiment [1] (setting [7]) and in experiment [1] (setting [8]) were 55% and -3%, respectively.
As for `O=c1cc(-c2ccc(O)c(O)c2)oc2cccc(O)c12` [5,3′,4′-trihydroxyflavone], the “% ER Induction” value in the experiment with estrogen receptor (ER) (1 µM) stood at 0%; in the experiment on estrogen receptor (ER) (4 µM), 13%. Also, the figures for the inhibition at 4 µM in experiment [1] (setting [2]) and in experiment [1] (setting [3]) were 27% and -16%, respectively. Also, the inhibition at 8 µM in experiment [1] (setting [4]) was 40%; in experiment [1] (setting [5]), -24%.
As for `O=c1cc(-c2ccc(O)cc2)oc2cccc(O)c12` [5,4′-dihydroxyflavone], the results for the “% ER Induction” value with estrogen receptor (ER) (1 µM) and with estrogen receptor (ER) (4 µM) were 53% and 138%, respectively. Further, the results for the inhibition at 4 µM in experiment [1] (setting [6]) and in experiment [1] (setting [9]) were 34% and 13%, respectively. Also, the figures for the inhibition at 8 µM in experiment [1] (setting [7]) and in experiment [1] (setting [8]) were 33% and 13%, respectively.
As to `O=c1cc(-c2ccc(O)c(O)c2)oc2ccccc12` [3′,4′-dihydroxyflavone], the “% ER Induction” value in the experiment on estrogen receptor (ER) (1 µM) was determined as 0%; in the experiment with estrogen receptor (ER) (4 µM), 13%. Also, the inhibition at 4 µM was -15% in experiment [1] (setting [6]) and -2% in experiment [1] (setting [9]). For the same molecule, the figures for the inhibition at 8 µM in experiment [1] (setting [7]) and in experiment [1] (setting [8]) were 38% and -6%, respectively.
With `O=c1cc(-c2ccccc2)oc2cc(O)cc(O)c12` [5,7-dihydroxyflavone], the inhibition at 4 µM in experiment [1] (setting [6]) was 22%; in experiment [1] (setting [9]), 0%. Also, the inhibition at 8 µM is 38% in experiment [1] (setting [7]) and -6% in experiment [1] (setting [8]).
As to `O=c1cc(-c2cc(O)c(O)c(O)c2)oc2cc(O)cc(O)c12` [5,7,3′4′,5′-pentahydroxyflavone], the “% ER Induction” value is 0% in the experiment on estrogen receptor (ER) (1 µM) and −1% in the experiment on estrogen receptor (ER) (4 µM). Further, the “% Inhibition of GR Induction” value in experiment [1] (4 µM, AP (alkaline phosphatase)) is reported as −19%; in experiment [1] (4 µM, LUC (luciferase)) it was 5%; in experiment [1] (8 µM, AP (alkaline phosphatase)), 46%; in experiment [1] (8 µM, LUC (luciferase)), −25%.
With `O=c1cc(-c2ccccc2)oc2ccccc12` [flavone], the “% ER Induction” value with estrogen receptor (ER) (1 µM) was found to be 1%; with estrogen receptor (ER) (4 µM), 3%. In addition, the inhibition at 4 µM in experiment [1] (setting [6]) came to 13%; in experiment [1] (setting [9]) it was 4%. For the same molecule, the inhibition at 8 µM in experiment [1] (setting [7]) is 34%; in experiment [1] (setting [8]) it was -24%.
Turning to `O=c1c(-c2ccc(O)cc2)coc2cc(O)ccc12` [7,4′-dihydroxyisoflavone], the “% ER Induction” value in the experiment on estrogen receptor (ER) (1 µM) is on record as 125%. Further, the inhibition at 8 µM in experiment [1] (setting [7]) is 5%; in experiment [1] (setting [8]) it was -52%.
As for `O=c1cc(-c2ccc(O)cc2)oc2ccc(O)cc12` [6,4′-dihydroxyflavone], the “% ER Induction” value in the experiment with estrogen receptor (ER) (1 µM) is on record as 119%; with estrogen receptor (ER) (4 µM) it was 192%. In addition, the inhibition at 4 µM was 26% in experiment [1] (setting [6]) and -44% in experiment [1] (setting [9]). The figures for the inhibition at 8 µM in experiment [1] (setting [7]) and in experiment [1] (setting [8]) were 39% and -82%, respectively.
In the case of `O=C1CC(c2ccc(O)cc2)Oc2cc(O)cc(O)c21` (stereo not shown) [5,7,4′-trihydroxyflavanone], the results for the “% ER Induction” value in the experiment on estrogen receptor (ER) (1 µM) and in the experiment on estrogen receptor (ER) (4 µM) were 48% and 93%, respectively. Further, the inhibition at 4 µM in experiment [1] (setting [6]) came to 8%; in experiment [1] (setting [9]), 15%. In addition, the inhibition at 8 µM in experiment [1] (setting [7]) stood at 7%; in experiment [1] (setting [8]), 19%.
With `O=C1CC(c2ccc(O)c(O)c2)Oc2cc(O)cc(O)c21` (stereo not shown) [5,7,3′,4′-tetrahydroxyflavanone], the “% ER Induction” value was found to be 0% in the experiment with estrogen receptor (ER) (1 µM) and 20% in the experiment with estrogen receptor (ER) (4 µM). Further, the inhibition at 4 µM in experiment [1] (setting [2]) came to 4%; in experiment [1] (setting [3]), 5%. Besides, the inhibition at 8 µM in experiment [1] (setting [4]) is -4%; in experiment [1] (setting [5]) it was 18%.
Take `O=c1cc(-c2ccc(O)c(O)c2)oc2cc(O)ccc12` [7,3′,4′-trihydroxyflavone]: the “% ER Induction” value in the experiment on estrogen receptor (ER) (1 µM) is 0%; in the experiment on estrogen receptor (ER) (4 µM) it was 30%. In addition, the inhibition at 4 µM in experiment [1] (setting [6]) is 21%; in experiment [1] (setting [9]), -117%. The inhibition at 8 µM in experiment [1] (setting [7]) was 36%; in experiment [1] (setting [8]), -87%.
Turning to `O=c1c(-c2ccc(O)cc2)coc2cc(O)cc(O)c12` [5,7,4′-trihydroxyisoflavone], the “% ER Induction” value in the experiment with estrogen receptor (ER) (1 µM) was found to be 125%; with estrogen receptor (ER) (4 µM), 180%. The values for the inhibition at 4 µM in experiment [1] (setting [6]) and in experiment [1] (setting [9]) were 22% and -7%, respectively.
Turning to `O=c1cc(-c2ccc(O)cc2)oc2ccccc12` [4′-hydroxyflavone], the “% ER Induction” value in the experiment with estrogen receptor (ER) (1 µM) was found to be 12%; in the experiment with estrogen receptor (ER) (4 µM), 130%. Also, the figures for the inhibition at 4 µM in experiment [1] (setting [6]) and in experiment [1] (setting [9]) were 49% and -43%, respectively. In addition, the inhibition at 8 µM in experiment [1] (setting [7]) was 49%; in experiment [1] (setting [8]), -49%.

For the origin of these results see paper PMC11940309, “Endocrine-Disrupting Activities of Flavones on Steroid Receptors: Structural Requirements and Synthesis of Novel Flavone with Improved Estrogenic Activity” (Biomedicines, 2025).
